Values joined by “and” are separate entries in the source; they are usually repeats but may differ in a detail not shown here. Identical values can stand only once.
System: chronic hepatitis B with hepatic fibrosis
Assay: Phase II clinical study: hepatic fibrosis Ishak score by liver biopsy, before and after 52 weeks of treatment on entecavir basic treatment
Type: in vivo, human
Conditions: for Rate difference (C-D) % and 95% CI, Ishak score decreased by ≥1: 180 mg group minus 270 mg group; for Hepatic fibrosis Ishak score, Mean (SD) / Hepatic fibrosis Ishak score, Median / Ishak score 0 point, n(%) / Ishak score 1 point, n(%) / Ishak score 2 points, n(%) / Ishak score 3 points, n(%) / Ishak score 4 points, n(%) / Ishak score 5 points, n(%) / Ishak score 6 points, n(%) / Progressive Ishak score (increases by ≥1 compared with the baseline) / Reversed Ishak score (decreases by ≥1 point compared with the baseline) / Stable Ishak score (unchanged compared with the baseline): 52 weeks of treatment
Description: This is a randomized, double-blind, placebo-controlled, multicenter, and dose-finding phase II clinical study with foundational treatment. In the clinical trial, three different dose test groups and a placebo control group were set on the basis of the entecavir capsule antiviral treatment, and the planned sample amount of each group was 60 cases, totaling 240 cases. The three dose test groups were 180 mg group, 270 mg group, and 360 mg group, respectively. […]

[1] = 180 mg group, FAS, 52 weeks of treatment vs baseline, all subjects
[2] = 180 mg group, FAS, all subjects
[3] = 180 mg group, FAS, baseline Ishak score ≥3
[4] = 180 mg group, FAS, screening period-follow-up 15 (52 weeks), baseline Ishak score ≥3
[5] = 180 mg group, PPS, 52 weeks of treatment vs baseline, all subjects
[6] = 180 mg group, PPS, all subjects
[7] = 180 mg group, PPS, baseline Ishak score ≥3
[8] = 180 mg group, PPS, screening period-follow-up 15 (52 weeks), baseline Ishak score ≥3
[9] = 270 mg group, FAS, 52 weeks of treatment vs baseline, all subjects
[10] = 270 mg group, FAS, all subjects
[11] = 270 mg group, FAS, baseline Ishak score ≥3
[12] = 270 mg group, FAS, screening period-follow-up 15 (52 weeks), baseline Ishak score ≥3
[13] = 270 mg group, PPS, 52 weeks of treatment vs baseline, all subjects
[14] = 270 mg group, PPS, all subjects
[15] = 270 mg group, PPS, baseline Ishak score ≥3

## Cc1ccc(=O)n(-c2ccc(O)cc2)c1 [hydronidone]
FAS, 52 weeks, all subjects
  Rate difference (C-D) % and 95% CI, Ishak score decreased by ≥1: −15.62(−35.03, 5.65) %
FAS, 52 weeks, baseline Ishak score ≥3
  Rate difference (C-D) % and 95% CI, Ishak score decreased by ≥1: −10.12(−34.40, 15.62) %
PPS, 52 weeks, all subjects
  Rate difference (C-D) % and 95% CI, Ishak score decreased by ≥1: −18.49(−38.82, 4.38) %
PPS, 52 weeks, baseline Ishak score ≥3
  Rate difference (C-D) % and 95% CI, Ishak score decreased by ≥1: −12.91(−37.46, 13.45) %
[1]
  Ishak score decreased by <1, n(%): 25(59.52) n(%)
  Ishak score decreased by ≥1, n(%): 17 (40.48%) n(%) and 17(40.48) n(%)
[2]
  Hepatic fibrosis Ishak score, Mean (SD): 2.71(1.88)
  Hepatic fibrosis Ishak score, Median: 2.00
  Ishak score 0 point, n(%): 3(7.14) n(%)
  Ishak score 1 point, n(%): 12(28.57) n(%)
  Ishak score 2 points, n(%): 8(19.05) n(%)
  Ishak score 3 points, n(%): 4(9.52) n(%)
  Ishak score 4 points, n(%): 5(11.90) n(%)
  Ishak score 5 points, n(%): 6(14.29) n(%)
  Ishak score 6 points, n(%): 4(9.52) n(%)
  Progressive Ishak score (increases by ≥1 compared with the baseline): 7 (16.67%) n(%) and 7(16.67) n(%)
  Reversed Ishak score (decreases by ≥1 point compared with the baseline): 17(40.48) n(%)
  Stable Ishak score (unchanged compared with the baseline): 18 (42.86%) n(%) and 18(42.86) n(%)
  Ishak score change, Baseline-52 weeks of treatment, Mean (SD): 0.43(1.25)
  Ishak score change, Baseline-52 weeks of treatment, Median: 0.00
[3]
  Ishak score 0 point, n(%): 1(4.17) n(%)
  Ishak score 1 point, n(%): 4(16.67) n(%)
  Ishak score 2 points, n(%): 1(4.17) n(%)
  Ishak score 3 points, n(%): 3(12.50) n(%)
  Ishak score 4 points, n(%): 5(20.83) n(%)
  Ishak score 5 points, n(%): 6(25.00) n(%)
  Ishak score 6 points, n(%): 4(16.67) n(%)
[4]
  Ishak score decreased by <1, n(%): 11(45.83) n(%)
  Ishak score decreased by ≥1, n(%): 13(54.17) n(%)
[5]
  Ishak score decreased by <1, n(%): 19(52.78) n(%)
  Ishak score decreased by ≥1, n(%): 17 (47.22%) n(%) and 17(47.22) n(%)
[6]
  Hepatic fibrosis Ishak score, Mean (SD): 2.67(1.88)
  Hepatic fibrosis Ishak score, Median: 2.00
  Ishak score 0 point, n(%): 3(8.33) n(%)
  Ishak score 1 point, n(%): 11(30.56) n(%)
  Ishak score 2 points, n(%): 5(13.89) n(%)
  Ishak score 3 points, n(%): 4(11.11) n(%)
  Ishak score 4 points, n(%): 5(13.89) n(%)
  Ishak score 5 points, n(%): 5(13.89) n(%)
  Ishak score 6 points, n(%): 3(8.33) n(%)
  Progressive Ishak score (increases by ≥1 compared with the baseline): 7 (19.44%) n(%) and 7(19.44) n(%)
  Reversed Ishak score (decreases by ≥1 point compared with the baseline): 17(47.22) n(%)
  Stable Ishak score (unchanged compared with the baseline): 12 (33.33%) n(%) and 12(33.33) n(%)
  Ishak score change, Baseline-52 weeks of treatment, Mean (SD): 0.50(1.34)
  Ishak score change, Baseline-52 weeks of treatment, Median: 0.00
[7]
  Ishak score 0 point, n(%): 1(4.55) n(%)
  Ishak score 1 point, n(%): 4(18.18) n(%)
  Ishak score 2 points, n(%): 1(4.55) n(%)
  Ishak score 3 points, n(%): 3(13.64) n(%)
  Ishak score 4 points, n(%): 5(22.73) n(%)
  Ishak score 5 points, n(%): 5(22.73) n(%)
  Ishak score 6 points, n(%): 3(13.64) n(%)
[8]
  Ishak score decreased by <1, n(%): 9(40.91) n(%)
  Ishak score decreased by ≥1, n(%): 13(59.09) n(%)
270 mg group + 360 mg group, FAS, 52 weeks, baseline Ishak score = 6 (cirrhosis)
  Ishak score decreased by ≥1, n(%): 9(90.00) n(%)
270 mg group + 360 mg group, FAS, 52 weeks, baseline Ishak score ≥3 (significant fibrosis)
  Ishak score decreased by ≥1, n(%): 35(61.40) n(%)
270 mg group + 360 mg group, FAS, 52 weeks, baseline Ishak score ≥4 (progressive fibrosis)
  Ishak score decreased by ≥1, n(%): 22(64.71) n(%)
270 mg group + 360 mg group, FAS, 52 weeks, baseline Ishak score ≥5 (early cirrhosis)
  Ishak score decreased by ≥1, n(%): 17(65.38) n(%)
270 mg group + 360 mg group, PPS, 52 weeks, baseline Ishak score = 6 (cirrhosis)
  Ishak score decreased by ≥1, n(%): 9(90.00) n(%)
270 mg group + 360 mg group, PPS, 52 weeks, baseline Ishak score ≥3 (significant fibrosis)
  Ishak score decreased by ≥1, n(%): 35(70.00) n(%)
270 mg group + 360 mg group, PPS, 52 weeks, baseline Ishak score ≥4 (progressive fibrosis)
  Ishak score decreased by ≥1, n(%): 22(70.97) n(%)
270 mg group + 360 mg group, PPS, 52 weeks, baseline Ishak score ≥5 (early cirrhosis)
  Ishak score decreased by ≥1, n(%): 17(70.83) n(%)
[9]
  Ishak score decreased by <1, n(%): 18(43.90) n(%)
  Ishak score decreased by ≥1, n(%): 23 (56.10%) n(%) and 23(56.10) n(%)
[10]
  Hepatic fibrosis Ishak score, Mean (SD): 2.64(1.74)
  Hepatic fibrosis Ishak score, Median: 2.00
  Ishak score 0 point, n(%): 2(5.13) n(%)
  Ishak score 1 point, n(%): 12(30.77) n(%)
  Ishak score 2 points, n(%): 7(17.95) n(%)
  Ishak score 3 points, n(%): 5(12.82) n(%)
  Ishak score 4 points, n(%): 5(12.82) n(%)
  Ishak score 5 points, n(%): 6(15.38) n(%)
  Ishak score 6 points, n(%): 2(5.13) n(%)
  Progressive Ishak score (increases by ≥1 compared with the baseline): 4 (9.76%) n(%) and 4(9.76) n(%)
  Reversed Ishak score (decreases by ≥1 point compared with the baseline): 23(56.10) n(%)
  Stable Ishak score (unchanged compared with the baseline): 14 (34.15%) n(%) and 14(34.15) n(%)
  Ishak score change, Baseline-52 weeks of treatment, Mean (SD): 0.78(1.11)
  Ishak score change, Baseline-52 weeks of treatment, Median: 1.00
[11]
  Ishak score 0 point, n(%): 2(7.14) n(%)
  Ishak score 1 point, n(%): 4(14.29) n(%)
  Ishak score 2 points, n(%): 4(14.29) n(%)
  Ishak score 3 points, n(%): 5(17.86) n(%)
  Ishak score 4 points, n(%): 5(17.86) n(%)
  Ishak score 5 points, n(%): 6(21.43) n(%)
  Ishak score 6 points, n(%): 2(7.14) n(%)
[12]
  Ishak score decreased by <1, n(%): 10(35.71) n(%)
  Ishak score decreased by ≥1, n(%): 18(64.29) n(%)
[13]
  Ishak score decreased by <1, n(%): 12(34.29) n(%)
  Ishak score decreased by ≥1, n(%): 23 (65.71%) n(%) and 23(65.71) n(%)
[14]
  Hepatic fibrosis Ishak score, Mean (SD): 2.60(1.77)
  Hepatic fibrosis Ishak score, Median: 2.00
  Ishak score 0 point, n(%): 2(5.71) n(%)
  Ishak score 1 point, n(%): 11(31.43) n(%)
  Ishak score 2 points, n(%): 7(20.00) n(%)
  Ishak score 3 points, n(%): 3(8.57) n(%)
  Ishak score 4 points, n(%): 5(14.29) n(%)
  Ishak score 5 points, n(%): 5(14.29) n(%)
  Ishak score 6 points, n(%): 2(5.71) n(%)
  Progressive Ishak score (increases by ≥1 compared with the baseline): 4 (11.43%) n(%) and 4(11.43) n(%)
  Reversed Ishak score (decreases by ≥1 point compared with the baseline): 23(65.71) n(%)
  Stable Ishak score (unchanged compared with the baseline): 8 (22.86%) n(%) and 8(22.86) n(%)
[15]
  Ishak score 0 point, n(%): 2(8.00) n(%)
  Ishak score 1 point, n(%): 4(16.00) n(%)
  Ishak score 2 points, n(%): 4(16.00) n(%)
  Ishak score 3 points, n(%): 3(12.00) n(%)

— patent US20240261271A1, “APPLICATION OF HYDRONIDONE IN PREPARATION OF DRUG FOR TREATING OR PREVENTING CHRONIC HEPATITIS B WITH LIVER FIBROSIS” (priority 2021, published 2024)
